Reference: publication PMC8241176, “Preliminary study on fabrication, characterization and synergistic anti-lung cancer effects of self-assembled micelles of covalently conjugated celastrol–polyethylene glycol–ginsenoside Rh2” (Drug Delivery, 2017)

Test system: A549 cells
Assay: Antiproliferative effect by MTT assay
Type: cell-based, human
Details: 48 h, G Rh2 6.4 μg/mL
Description: The human NSCLC cell line, A549, was cultured in RPMI 1640 medium containing 10% FBS at 37 °C and 5% CO2 in an incubator with saturated humidity. The medium was replaced every 2 days and the cells were passaged at the split ratio of 1:8 every 5–7 days. Cells grown to the logarithmic growth phase were harvested for further experiments.
The A549 cells were seeded in a 96-well plate at 5 × 10^3 cells/well and incubated for 24 h. The medium was then discarded and each well received 100 μL of different concentrations of CG-M, CG-Mblank, celastrol + G Rh2, celastrol and G Rh2. After 48 h of incubation, 100 μL of 0.5 mg/mL MTT in phosphate-buffered saline (PBS) was added to each well, followed by 4 h of incubation in the dark. […] The plate was shaken at low speed for 3 min, and the absorbance at 570 nm was measured using a microplate reader to calculate cell viability. Cell viability (%) = Absorbance of the drug treatment group (Adrug)/Absorbance of the control group (Acontrol) × 100. The IC50 was calculated by GraphPad prism 6.0 software (GraphPad Software Inc., San Diego, CA). The combined index (CI) was calculated with the following formula: CI = IC50 of celastrol in combination group/IC50 of celastrol + IC50 of G Rh2 in combination group/IC50 of G Rh2 (Qu et al., [2017]; Wu et al., [2017]), which represents a synergistic antitumor effect if the value is less than 1.

CC(C)=CCC[C@](C)(O)[C@H]1CC[C@]2(C)[C@@H]1[C@H](O)C[C@@H]1[C@@]3(C)CC[C@H](O[C@@H]4O[C@H](CO)[C@@H](O)[C@H](O)[C@H]4O)C(C)(C)[C@@H]3CC[C@]12C [G Rh2, ginsenoside Rh2]
survival rate of cells: 67.5%
